# Reference: patent US7964587B2, “Tocopherol and tocotrienol aerosols” (Children's Hospital & Research Center at Oakland, priority 2002, dated 2011)
# Like-named read-outs stand apart in the source and are kept apart here.
# Columns and labels:
# [1] = tested on: carrageenan-induced inflammation; assay: carrageenan-induced inflammation in the air-pouch model; format: in vivo, rat
# Procedure: For this experimental protocol, we adapted the methods recited in the Experimental Example reported below. […] Formulations were administered as described below, wherein the recited tocopherol was dissolved in tocopherol-stripped corn oil, and continuously administrated by gavage for three days before the induction of inflammation. The PGE2 component of the formulation was empirically varied and adjusted to provide a minimized synergistic concentration. For example, aspirin formulations were adjusted to 50 or 100 mg/Kg with gamma-T at 30 mg/Kg. In controls evaluating the effects of aspim or gamma-T alone, we increased the aspririn dosage to 150 mg/Kg and gamma-T to […], respectively.
# Gamma-CEHC was quantified essentially as previously described (13).
# For the measurement of PGE2, LTB4 and 8-isoprostane, the exudate fluid was mixed vigorously with 2 mL methanol to precipitate proteins, and with 5 mL hexane to remove lipids. Following a brief centrifugation and aspiration of the hexane layer, the methanol layer was removed and evaporated under N2. PGE2, LTB4 and 8-isoprostane were measured using the corresponding ELISA kits from Cayman Chemicals (Ann Arbor, Mich.). TNF-a and lactate dehydrogenase (LDH) in the exudate were measured directly using an ELISA kit from R&D (Minneapolis, Minn.) and an analytical kit from Roche (Indianapolis, Ind.), respectively.
# The total amount of nitrate and nitrite in the exudate was measured using the Model 280 nitric oxide analyzer (NOA™) (Sievers Instruments, Inc.; Boulder, Colo.). Nitrite and nitrate in the exudate were reduced by vanadium (III) to nitric oxide, which then was measured by a red-sensitive photomultiplier tube after being converted by ozone to chemiluminescent reactive nitrogen dioxide. Nitrite and nitrate were quantified based on a standard curve from nitrate that was established under the identical conditions.
# Carrageenan-induced inflammation in the air-pouch model is commonly used to evaluate the pharmaceutical potency of anti-inflammatory drugs (14). […] These cells play a key role in the inflammatory response (11, 14, 15). A single injection of carrageenan caused a potent localized inflammation, as indicated by a marked increase in white cell infiltration, eicosanoid formation and tissue damages (11). To study the effect of gamma-CEHC on eicosanoid synthesis and neutrophil infiltration, it (1 mg/ml, 2 ml in PBS) was injected directly into the air pouch right before the injection of carrageenan. Since the retention of gamma-CEHC is relatively short (16), its effect was evaluated at 6 h after the induction of inflammation.
# To test the effects of tocopherols, alpha-T or gamma-T, dissolved in tocopherol-stripped corn oil, was continuously administrated by gavage for three days before the induction of inflammation. Effects were evaluated at 20 h after carrageenan injection, when cell infiltration had reached a maximum in the pouch.
# PGE2 = assay: inhibition of PGE2, apparent IC50s of vitamin E forms; format: cell-based; conditions: for inhibitory effect on PGE2: e.g. ref. 10
# [2] = plasma and exudate concentrations of alpha-T, gamma-T and gamma-CEHC in the air-pouch model; conditions: for gamma-T concentration in the collected exudate: 20-h after carrageenan
# Procedure: Carrageenan-induced inflammation in the air-pouch model was performed and evaluated substantially as previously described (14). Alpha-T and gamma-T were measured in plasma and exudate as previously described (12). Gamma-CEHC was quantified essentially as previously described (13).
# To evaluate the relative bio-availability of the administrated compounds, we measured plasma and exudate concentrations of gamma-T and alpha-T as well as plasma gamma-CEHC.
# [3] = tested on: carrageenan-induced inflammation; conditions: cited from earlier work
# [4] = tested on: lung epithelial cancer cells; assay: anti-proliferative effect on lung cancer cells; format: cell-based, human
# normal epithelial cells = assay: effect on normal epithelial cells; format: cell-based
# [5] = tested on: human prostate epithelial cancer cells; assay: anti-proliferative effect on prostate cancer cells; format: cell-based
# [6] = cited from earlier work
# [7] = 1 mg/ml, 2 ml in PBS injected into the air pouch, 6 h
# [8] = 33 mg/kg by gavage for three days, 20 h after carrageenan, P<0.05
molecule,measurement,setting,value
"Cc1c(C)c2c(c(C)c1O)CC[C@@](C)(CCC[C@H](C)CCC[C@H](C)CCCC(C)C)O2 [alpha-T, alpha-tocopherol, reference compound]",effects on generation of eicosanoids and 8-isoprostane,[1]; 33 mg/kg,did not show any significant effects
same,inhibitory effect on PGE2,PGE2,weak to no inhibitory effect
same,increased alpha-T level in the plasma and exudate,[2]; 33 mg/kg alpha-T,approximately 2 fold
same,decrease of gamma-T in the exudate caused by alpha-T administration,[2]; P<0.05,40%
same,decrease of gamma-T in the plasma caused by alpha-T administration,[2]; P<0.05,~55%
"CC(=O)Oc1ccccc1C(=O)O [aspirin, Acetylsalicylic acid]",neutrophil infiltration,[3]; doses of 100-150 mg/kg,did not affect
same,reduction of PGE2,[3]; doses of 100-150 mg/kg,50-70%
same,cell infiltration,"[3]; higher doses, >200-300 mg/kg",inhibits cell infiltration
"Cc1cc(O)c(C)c2c1O[C@](C)(CCC[C@H](C)CCC[C@H](C)CCCC(C)C)CC2 [beta-T, beta-tocopherol, reference compound]",inhibitory effect on PGE2,PGE2,weak to no inhibitory effect
"Cc1cc(O)cc2c1O[C@](C)(CCC[C@H](C)CCC[C@H](C)CCCC(C)C)CC2 [delta-T, Delta-tocopherol]",IC50,PGE2,2.5 to 5 µM
"Cc1c(O)cc2c(c1C)OC(C)(CCC(=O)O)CC2 (centres unmarked) [gamma-CEHC, 2,7,8-trimethyl-2-(b-carboxyethyl)-6-hydroxychroman]",inhibition of LTB4,[1]; [7],"inhibited LTB4 and neutrophil infiltration, though non-significantly"
same,inhibition of neutrophil infiltration,[1]; [7],"inhibited LTB4 and neutrophil infiltration, though non-significantly"
same,reduction of PGE2 in the pouch,"[1]; 1 mg/ml, 2 ml in PBS injected into the air pouch, 6 h after induction, P<0.05",~29%
same,plasma concentration of gamma-CEHC,"[2]; rat, in vivo",Nano-molar concentrations
same,plasma gamma-CEHC level relative to plasma gamma-T,"[2]; rat, in vivo",less than 10%
"Cc1c(O)cc2c(c1C)O[C@](C)(CCC[C@H](C)CCC[C@H](C)CCCC(C)C)CC2 [gamma-T, gamma-tocopherol]",anti-proliferative effect,[4],showed anti-proliferative effects
same,effect on total nitrate and nitrite,[1]; 33 mg/kg,had no effect
same,reduction of LTB4,[1]; [8],70%
same,reduction of PGE2,[1]; [8],46%
same,reduction of 8-isoprostane in the pouch (lipid peroxidation),"[1]; 33 mg/kg, P<0.05",~57%
same,attenuation of the loss of food consumption,"[1]; 33 mg/kg, non-significant, P=0.2",20%
same,inhibition of TNF-a,"[1]; 33 mg/kg, non-significant, P=0.29",~51%
same,inhibitory potency against PGE2,"[1]; 100 mg/kg by gavage for three days, 20 h, P<0.05",51%
same,attenuation of the loss of food consumption,"[1]; 100 mg/kg, P<0.03",30%
same,reduction of 8-isoprostane in the pouch (lipid peroxidation),"[1]; 100 mg/kg, P<0.05",~57%
same,lowering of LDH (cytotoxicity and tissue damage marker),"[1]; 100 mg/kg, P=0.067",30%
same,reduction of TNF-a,"[1]; 100 mg/kg, P=0.069",65%
same,reduction of total nitrite and nitrate,"[1]; 100 mg/kg, P=0.1",40%
same,neutrophil infiltration,"[1]; gavage 33 or 100 mg/kg, 20 h",did not affect
same,IC50,PGE2,5 to 10 µM
same,elevation of gamma-T in exudate fluid vs corn-oil fed controls,[2]; 33 mg/kg,~10 fold
same,"gamma-T concentration in exudate, corresponding molar concentration",[2]; 33 mg/kg,~10 µM
same,increase of gamma-T in the plasma vs corn-oil fed controls,[2]; 33 mg/kg,3 fold
same,ratio of gamma-T to alpha-T in the exudate,[2]; 33 mg/kg gamma-T,~0.3
same,gamma-T concentration in the collected exudate,[2]; 33 mg/kg,93.3 nmol/gprotein
same,elevation of gamma-T in exudate fluid vs corn-oil fed controls,[2]; 100 mg/kg,~20 fold
same,"gamma-T concentration in exudate, corresponding molar concentration",[2]; 100 mg/kg,~20 µM
same,increase of gamma-T in the plasma vs corn-oil fed controls,[2]; 100 mg/kg,5 fold
same,ratio of gamma-T to alpha-T in the exudate,[2]; 100 mg/kg gamma-T,~0.7
same,gamma-T concentration in the collected exudate,[2]; 100 mg/kg,193 nmol/gprotein
same,ratio of gamma-T to alpha-T in the plasma,[2]; 33 or 100 mg/kg gamma-T,~0.15
same,effect of gamma-T administration on alpha-T levels,"[2]; rat, in vivo",did not significantly affect
same,effect on normal epithelial cells,normal epithelial cells,had no effect
same,anti-proliferative effect,[5],showed anti-proliferative effects
same,fraction of gamma-T converted to gamma-CEHC,[6],≤ 50%
CC(C)=CCC/C(C)=C/CC/C(C)=C/CC[C@]1(C)CCc2cc(O)c(C)c(C)c2O1 [gamma-tocotrienol],IC50,PGE2,1 to 2.5 µM
alpha-tocotrienol [reference compound],inhibitory effect on PGE2,PGE2,weak to no inhibitory effect
